Like-named read-outs stand apart in the source and are kept apart here.
Experiments:
[1] = experimental; cited from earlier work
[2] = CHEX/H2O partition coefficient (log D) predicted with the QM-parameterized force field model (ARROW FF)
How it was run: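 Cyclohexane/water partition coefficients were predicted by molecular simulation with a QM-parameterized force field, with bonded force constants and equilibrium values fitted to MP2/aug-cc-pVTZ energies. Solutes carried neutral functional groups, and results from four independent groups were averaged.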

[3] = implicit solvent model, values received; cited from earlier work
[4] = Free energy of hydration by COSMO-RS
How it was run: (§1)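 COSMO solvation free energies were calculated for the molecule set with MolPro because no original-COSMO free energy data were available. SMD and PCM hydration free energies were obtained as received. SMD, PCM and COSMO-RS values cover only molecules that overlap with those computed using the QM-parameterized force field model.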

[5] = implicit solvent model, values received; cited from earlier work; remark: listed apart in the source
[6] = Free energy of hydration by COSMO implicit solvent model (MolPro ver. 2012); details: absolute error vs Exp (hydration)
How it was run: as §1

[7] = CHEX/H2O partition coefficient, experimental, cited from earlier work; for Exp (log D): Table 3; for logD Exp (logD): Table 4
[8] = Free energy of hydration predicted with the QM-parameterized force field model (ARROW FF), classical MD and PIMD simulation in a water box; details: for Arrow PIMD8 Error: absolute error vs Exp (hydration); for Arrow error: Table 5, error of Arrow PIMD8 hydration free energy vs experiment
How it was run: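 Solute decoupled from solvent in a 32×32×32 Å3 water box (PME, 9 Å cutoffs), electrostatics, exchange-repulsion and dispersion switched off together over 15 lambda points with soft-coring. Steepest-descent minimization, 50 ps equilibration, 1 ns NPT production at 1 atm; classical and path-integral MD. Free energy from BAR and TI.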

[9] = Free energy of hydration by Polarizable Continuum Model (PCM); details: absolute error vs Exp (hydration)
How it was run: as §1

[10] = Bulk solvent properties (density, heat of vaporization, self-solvation) predicted with the QM-parameterized force field model (AFF MD / PIMD)
Excerpt: Particle-Mesh Ewald (PME) algorithm was used to compute the electrostatic interactions. A 32×32×32 grid mesh and 5th power spline interpolation order can be used to compute the inverse PME sum. 9 Å cutoffs were used to compute the direct PME sum as well as the exchange and dispersion interactions. Bulk corrections were applied to account for distance cut-off of dispersion interactions. Solvation free energies were computed by decoupling the interactions between the solute and the solvent molecules. Electrostatic, exchange-repulsion and dispersion interactions were switched off simultaneously using a lambda-dependent scaling (a scaling factor power=2 was used) and a soft-coring algorithm (maximal soft-coring radius=1.5 Å, soft-coring radius scaling factor power=1). 15 lambda points unequally spaced (X=0, 0.05, 0.1, 0.2, 0.3, 0.4, 0.5, 0.6, 0.7, 0.75, 0.8, 0.85, 0.9, 0.95, 1.0) were used to decouple the solute-solvent intermolecular interactions.
In some simulations of the QM-parameterized force field molecular simulation process, energy minimization (10,000 steps) using the steepest descent algorithm was initially performed on all the simulation systems. This was followed by a 50 ps equilibration and 1 ns production runs in the isothermal-isobaric ensemble (NPT). […] Pressure was maintained at 1 atm using a MTTK barostat (relaxation time=5 ps). […]

[11] = experimental, cited from earlier work
[12] = Free energy of hydration by Solvation Model Dielectric (SMD) implicit solvent model; details: absolute error vs Exp (hydration)
How it was run: as §1

[13] = experimental, cited from earlier work; for Exp (hydration): Table 5
[14] = Free energy of hydration predicted by polarizable AMOEBA force field, from literature; details: Table 5; error of AMOEBA hydration free energy vs experiment
[15] = Free energy of hydration by Free Energy Machine Learning Model (FML); details: absolute error vs Exp (hydration)
Excerpt: Machine learning models can be used for free energy determination.

[16] = Free energy of hydration predicted by General Amber Force Field (GAFF), from literature; details: Table 5; error of GAFF hydration free energy vs experiment
[17] = Free energy of solvation in cyclohexane predicted with the QM-parameterized force field model (ARROW FF), MD and PIMD; details: Table 4; for CHEX Arrow MD Error: error of MD cyclohexane solvation free energy vs experiment; for CHEX Arrow PIMD4 Error: error of PIMD4 cyclohexane solvation free energy vs experiment
How it was run: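 Solute–cyclohexane interactions decoupled over 15 λ points with soft-core scaling, in MD and path-integral simulations under NPT at 1 atm using PME electrostatics and 9 Å cutoffs. Each window had 50 ps equilibration and 1 ns production; free energies from BAR and TI.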

[18] = Table 5; free energy of hydration, GAFF prediction taken from literature; cited from earlier work
[19] = Table 5; free energy of hydration, AMOEBA prediction taken from literature; cited from earlier work
[20] = Table 3, absolute error of MD hydration free energy vs experiment
[21] = Table 3, absolute error of PIMD8 hydration free energy vs experiment
[22] = Table 3, free energy of solvation in cyclohexane
[23] = Table 3, free energy of hydration
[24] = Table 4, error of MD hydration free energy vs experiment
[25] = Table 4, error of PIMD8 hydration free energy vs experiment
[26] = Table 4, solvation free energy in cyclohexane
[27] = Table 4, neutral amino-acid analogues

| SMILES | log D Arrow MD Error [2] | log D Arrow PIMD Error [2] | PCM free energy of hydration [3] [kcal/mol] | COSMO-RS error [4] [kcal/mol] | SMD free energy of hydration [5] [kcal/mol] | COSMO/Molpro Error [6] [kcal/mol] | Exp (log D) [7] | water Arrow MD Error [8, 20] [kcal/mol] | water Arrow PIMD8 Error [8, 21] [kcal/mol] | Arrow PIMD8 Error [8] [kcal/mol] | PCM Error [9] [kcal/mol] | CHEX Exp (solvation) [11, 22] [kcal/mol] | SMD Error [12] [kcal/mol] | water Exp (hydration) [13, 23] [kcal/mol] | AMOEBA error [14] [kcal/mol] | Arrow error [8] [kcal/mol] | GAFF error [16] [kcal/mol] | Exp (hydration) ([13]; free energy of hydration) [kcal/mol] | GAFF [18] [kcal/mol] | AMOEBA [19] [kcal/mol] | further results |
| --- | --- | --- | --- | --- | --- | --- | --- | --- | --- | --- | --- | --- | --- | --- | --- | --- | --- | --- | --- | --- | --- |
| C1CCCCC1 [Cyclohexane] | 0.89 | 0.36 | -0.10 | 0.10 | 1.40 | 1.71 | 4.14 | 1.03 | 0.10 | 0.10 | 1.33 | -4.42 | 0.17 | 1.23 |  |  |  |  |  |  | Density [1]: 0.790 g/cc; Hvap [1]: 7.91 kcal/mol; self-solvation [1]: -4.42 kcal/mol; agreement of bulk energetics ([10]; within chemical accuracy): ≤ 0.5 kcal/mol; Hydration [13]: 1.20 kcal/mol |
| CCO [Ethanol] |  |  | -3.10 | 0.07 | -4.20 | 1.19 |  | 0.74 | 0.07 | 0.07 | 1.91 | -2.59 | 0.81 | -5.01 | 0.32 | 0.07 | 1.56 | -5.01 | -3.45 | -4.69 | FML error [15]: 0.08 kcal/mol; water Arrow MD Error [8, 24]: 0.74 kcal/mol; water Arrow PIMD8 Error [8, 25]: 0.07 kcal/mol; CHEX Exp (solvation) [11, 26]: -2.59 kcal/mol; CHEX Arrow MD Error [17]: 0.05 kcal/mol; CHEX Arrow PIMD4 Error [17]: 0.12 kcal/mol; water Exp (hydration) [13, 27]: -5.01 kcal/mol |
| C [Methane] | 0.25 | 0.09 | -0.10 | 0.20 | 2.20 | 2.35 | 1.33 | 0.32 | 0.09 | 0.09 | 2.06 | 0.14 | 0.24 | 1.96 | 0.23 | 0.09 | 0.24 | 1.96 | 2.20 | 1.73 | logD Arrow MD Error [2]: 0.25; logD Arrow PIMD Error [2]: 0.09; FML error [15]: 1.59 kcal/mol; logD Exp (logD) [7]: 1.33; water Arrow MD Error [8, 24]: 0.32 kcal/mol; water Arrow PIMD8 Error [8, 25]: 0.09 kcal/mol; CHEX Exp (solvation) [11, 26]: 0.14 kcal/mol; CHEX Arrow MD Error [17]: 0.01 kcal/mol; CHEX Arrow PIMD4 Error [17]: 0.04 kcal/mol; water Exp (hydration) [13, 27]: 1.96 kcal/mol |
| CCC [Propane] | 0.31 | 0.04 | -0.10 | 0.05 | 1.80 | 2.43 | 2.93 | 0.66 | 0.00 | 0.00 | 2.06 | -2.03 | 0.16 | 1.96 | 0.27 | 0.00 | 0.60 | 1.96 | 2.56 | 1.69 | logD Arrow MD Error [2]: 0.31; logD Arrow PIMD Error [2]: 0.04; FML error [15]: 0.50 kcal/mol; logD Exp (logD) [7]: 2.93; water Arrow MD Error [8, 24]: 0.66 kcal/mol; water Arrow PIMD8 Error [8, 25]: 0.00 kcal/mol; CHEX Exp (solvation) [11, 26]: -2.03 kcal/mol; CHEX Arrow MD Error [17]: 0.23 kcal/mol; CHEX Arrow PIMD4 Error [17]: 0.05 kcal/mol; water Exp (hydration) [13, 27]: 1.96 kcal/mol |
| O [Water] | 0.31 | 0.17 | -4.70 | 2.53 | -8.00 | 2.29 | −4.33 | 0.51 | 0.17 | 0.17 | 1.60 | -0.39 | 1.70 | -6.30 | 0.44 | 0.17 | 0.26 | -6.30 | -6.04 | -5.86 | Density [1]: 0.997 g/cc; Hvap [1]: 10.51 kcal/mol; self-solvation [1]: -6.30 kcal/mol; agreement of predicted bulk properties with experimental values ([10]; density, heat of vaporization, self-solvation, PIMD8): ≤ 3%; Hydration [13]: -6.30 kcal/mol |

From patent US20230129485A1, “SYSTEM AND METHOD FOR DETERMINING MATERIAL PROPERTIES OF MOLECULAR SYSTEMS FROM AN AB-INITIO PARAMETERIZED FORCE-FIELD” (InterX, Inc., priority 2021, published 2023)
